Values quoted from earlier work in patent US10045962B2 (priority 2014, dated 2018).

What was measured:
reuptake of serotonin = conditions: pre-clinical tests; cited from earlier work
[1] = tested on: reuptake of norepinephrine; conditions: pre-clinical tests; cited from earlier work
reuptake of dopamine = conditions: pre-clinical tests; cited from earlier work
dopaminergic receptors = conditions: in vitro tests; cited from earlier work
adrenergic receptors = conditions: in vitro tests; cited from earlier work
cholinergic receptors = conditions: in vitro tests; cited from earlier work
histaminergic receptors = conditions: in vitro tests; cited from earlier work
monoamine oxidase = conditions: cited from earlier work

CNCC[C@H](Oc1cccc2ccccc12)c1cccs1 [duloxetine]
block of reuptake of serotonin (reuptake of serotonin): effectively block | block of reuptake of norepinephrine [1]: effectively block | block of reuptake of dopamine (reuptake of dopamine): merely slightly block | affinity to dopaminergic receptors (dopaminergic receptors): no significant affinity | affinity to adrenergic receptors (adrenergic receptors): no significant affinity | affinity to cholinergic receptors (cholinergic receptors): no significant affinity | affinity to histaminergic receptors (histaminergic receptors): no significant affinity | inhibition of monoamine oxidase (monoamine oxidase): does not inhibit
